Laboratory results published in patent US11434227B2, “Broad spectrum antibacterial activity of novel bisbenzimidazoles targeting topoisomerase IA and the synergistic composition of bisbenzimidazole with efflux pump inhibitors against pathogenic bacteria” (Jawaharlal Nehru University (JNU), priority 2016, dated 2022).
Values after ≈ are worked out from the molar mass of the structure shown.

What was measured:
E. coli K12 mutant ΔtolC = assay: Susceptibility of E. coli K12 and mutants (MIC90); details: Escherichia coli
Procedure: (§1) MICs were determined by the broth microdilution method according to CLSI methods (Clinical and Laboratory Standards Institute, 2005). Inoculants were incubated at 37° C. on cation adjusted Mueller Hinton (MH) Broth for 18 to 24 h. Compound were dissolved in media to 10 doubling dilutions from 128 to 0.125 μg/mL. All the bacterial strains were grown in 96 well plate with low evaporation lid (Falcon, Becton Dickinson) in presence of derivatives of benzimidazoles at 0.125, 0.25, 0.5, 1, 2, 4, 8, 16, 32, 64, 128, 256 μg/mL concentrations. […] Plates were read by Tecan Micro-plate Reader at 600 nm.

E. coli Topoisomerase IA = E. coli Topoisomerase IA (Escherichia coli, UniProt P06612); assay: Topoisomerase IA cleavage and religation assay; format: biochemical; details: biochemical assays and computational studies
Chain of E. coli Topoisomerase IA (P06612 whole entry): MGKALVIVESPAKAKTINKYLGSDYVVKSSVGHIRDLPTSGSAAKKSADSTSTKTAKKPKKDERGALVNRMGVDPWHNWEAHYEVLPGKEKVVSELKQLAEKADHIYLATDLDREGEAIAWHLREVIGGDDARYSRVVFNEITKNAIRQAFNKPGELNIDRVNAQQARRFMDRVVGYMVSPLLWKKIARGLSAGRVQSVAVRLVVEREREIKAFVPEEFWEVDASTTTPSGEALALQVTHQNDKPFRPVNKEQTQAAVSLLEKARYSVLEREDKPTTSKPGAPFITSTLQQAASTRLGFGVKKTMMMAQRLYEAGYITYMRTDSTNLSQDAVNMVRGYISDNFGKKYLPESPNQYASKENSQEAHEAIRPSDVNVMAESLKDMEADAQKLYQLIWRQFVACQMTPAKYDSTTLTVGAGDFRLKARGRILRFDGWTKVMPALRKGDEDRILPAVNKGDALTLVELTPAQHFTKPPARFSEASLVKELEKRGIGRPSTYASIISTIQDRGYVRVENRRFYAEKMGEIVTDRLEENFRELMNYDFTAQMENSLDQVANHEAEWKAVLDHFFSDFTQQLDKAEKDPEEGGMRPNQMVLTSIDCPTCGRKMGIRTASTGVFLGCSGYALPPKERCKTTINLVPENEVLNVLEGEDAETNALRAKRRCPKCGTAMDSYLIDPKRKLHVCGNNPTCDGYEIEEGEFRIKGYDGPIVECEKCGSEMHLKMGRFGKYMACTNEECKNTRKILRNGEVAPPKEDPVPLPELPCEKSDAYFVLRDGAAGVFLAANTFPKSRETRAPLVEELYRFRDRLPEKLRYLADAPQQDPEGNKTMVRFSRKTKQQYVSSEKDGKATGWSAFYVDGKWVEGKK
Procedure: Compounds at different concentrations were added to DNA cleavage reaction mixtures (20 μl) containing 50 mM TrisHCl, pH 7.5, 2 mM MgCl2 0.2 mM DTT, 0.5 mM EDTA, 30 μg/ml BSA, 25 μg/ml of pHOT1 having specific site for DNA, 40 units of E. coli Topoisomerase IA and ligands was incubated at 37° C. for 30 min. The reactions was then terminated by adding 1% SDS and 150 μg/m Proteinase K, and incubated further for 1 h at 37° C. The DNA samples was electrophoresed in 1% agarose gel in 0.5×TBE. Ethidium bromide at a finial concentration of 0.5 μg/ml was included in the gel to resolve slowly migrating nicked product (cleavable complex) from the supercoiled DNA molecules.

E. coli 401^R = assay: Susceptibility (MIC, PAE, MBC), broth microdilution; details: Escherichia coli
Procedure: as §1

E. coli ATCC 25922 = assay: Mouse systemic infection (septicemia) model; format: in vivo, Balb/c mice
Procedure: Female Balb/c mice weighing 20-25 g of 6-8 weeks old were injected with E. coli ATCC 25922 (0.5×10^8 CFU in 0.1 mL saline) intraperitoneally. […] Each treatment or control group had 10 mice. Mortality was recorded daily for 7 days post infection.

E. coli 132^R = assay: Susceptibility (MIC, PAE, MBC), broth microdilution; details: Escherichia coli
Procedure: as §1

[1] = tested on: Klebsiella planticola (K589); assay: Susceptibility (MIC50/MIC90), broth microdilution
Procedure: as §1

Escherichia coli 385 = assay: Susceptibility (MIC50/MIC90), broth microdilution
Procedure: as §1

[2] = Synergistic effect of CCCP and HN12b in neutropenic thigh infection model; format: in vivo, Balb/c mice; details: HN12b 3 mg/kg bw + CCCP 3 mg/kg bw
K. planticola (1164) = assay: HN12b in combination with efflux pump inhibitors (CB method, FICI)
Procedure: 96-well microtiter plates containing MIC25 concentrations of the Efflux pump inhibitor (CCCP, PAβN) and HN12b antimicrobial drugs alone and in CB combination were used. The MICs of the individual drugs HN12b, PAβN and CCCP (0.25 to 128 μg/ml) and of the combinations were determined using the broth microdilution technique as recommended by the CLSI. Briefly, the broth microdilution plates were inoculated with each test organism to yield the appropriate density (10^5 CFU/ml) in 100 μl Mueller-Hinton broth (MHB) and incubated for 24 h at 37° C. in ambient air. One well with no antibiotic was used as a positive growth control on each plate. Plates were read for visual turbidity, and results were recorded after 24 h of incubation at 37° C. in ambient air by using a magnifying mirror reader, as turbidity in wells indicated growth of the microorganism. The MIC was determined as the well in the microtiter plate with the lowest drug concentration at which there was no visible growth. […] MICAB was defined as the MIC of drug A in the presence of drug B; MICBA was defined as the MIC of drug B in the presence of drug A.
The fractional inhibitory concentration index (FICI) was calculated for each antibiotic in each combination by using the following formula: FICA+FICB=FICI, where FICA equals the MIC of drug A in combination divided by the MIC of drug A alone and FICB equals the MIC of drug B in combination divided by the MIC of drug B alone. The FICIs were interpreted as follows: FICI of ≤0.5 will correspond to synergy; FICI of >0.5 to ≤1 will correspond to additivity; FICI of >1 to ≤4 will correspond to no interaction (indifference), and FICI of >4 will correspond antagonism.

[3] = tested on: isogenic efflux deleted strains; assay: Susceptibility of isogenic efflux deleted strains versus wild type; format: cell-based, Escherichia coli; details: in comparison to wild type strains
E. coli 118^R = assay: Susceptibility (MIC, PAE, MBC), broth microdilution; details: Escherichia coli
[4] = tested on: Klebsiella planticola (MTCC 2272); assay: Susceptibility (MIC50/MIC90), broth microdilution; details: MTCC2272
Procedure: as §1

[5] = tested on: Acinetobacter baumannii (MTCC1920); assay: Susceptibility (MIC50/MIC90), broth microdilution
Procedure: as §1

Enterococcus sp. (1367) = assay: Susceptibility (MIC50/MIC90), broth microdilution
Procedure: as §1

E. coli 85^R = assay: Susceptibility (MIC, PAE, MBC), broth microdilution; details: Escherichia coli
Procedure: as §1

[6] = K. planticola (1164), HN12b + CCCP

CCCN1CCN(c2nc3ccc(-c4nc5ccccc5[nH]4)cc3[nH]2)CC1 [HN12b, 2′-(4-propylpiperazine-1-yl)-1H, 3′H-2,5′-bibenzimidazole]
MIC90 (E. coli K12 mutant ΔtolC): 0.5 µg/mL (≈ 1.39 µM)
mechanism of inhibition (Mg^2+ chelation) (E. coli Topoisomerase IA): chelates Mg^2+ required for, the religation of DNA
MBC (E. coli 401^R): 2 µg/mL (≈ 5.55 µM)
MIC50 (E. coli 401^R): 1 µg/mL (≈ 2.77 µM)
MIC90 (E. coli 401^R): 1.7 µg/mL (≈ 4.72 µM)
ED50 (E. coli ATCC 25922; Escherichia coli, iv, 168 h, Septicemia, ATCC25922, single i.v. bolus, survival over 7 days): 5 mg/kg
in vivo efficacy (E. coli ATCC 25922; Septicaemia model, E. coli ATCC 25922): good in vivo efficacy
MBC (E. coli 132^R): 4 µg/mL (≈ 11.1 µM)
MIC50 (E. coli 132^R): 2 µg/mL (≈ 5.55 µM)
MIC90 (E. coli 132^R): 3.5 µg/mL (≈ 9.71 µM)
MIC50 [1]: 7.4 µg/mL (≈ 20.5 µM)
MIC90 [1]: 97.4 µg/mL (≈ 270 µM)
MIC50 (Escherichia coli 385): 1.5 µg/mL (≈ 4.16 µM)
MIC90 (Escherichia coli 385): 3.3 µg/mL (≈ 9.15 µM)
in vivo efficacy in combination with CCCP [2]: further improves
FICI (K. planticola (1164); [6]): 0.5
Interpretation (K. planticola (1164); [6]): Synergy (FICI of ≤0.5 will correspond to synergy)
FICI (K. planticola (1164); K. planticola (1164), HN12b + PAβN): 1
MIC90 (K. planticola (1164); Klebsiella planticola): 128 µg/mL
sensitisation of efflux deleted strains [3]: more sensitised
MBC (E. coli 118^R): 2 µg/mL (≈ 5.55 µM)
MIC50 (E. coli 118^R): 1 µg/mL (≈ 2.77 µM)
MIC90 (E. coli 118^R): 1.7 µg/mL (≈ 4.72 µM)
MIC50 [4]: 30 µg/mL (≈ 83.3 µM)
MIC90 [4]: 128 µg/mL (≈ 355 µM)
MIC50 [5]: > 128 µg/mL
MIC90 [5]: 128 µg/mL (≈ 355 µM)
MIC50 (Enterococcus sp. (1367)): < 0.25 µg/mL
MIC90 (Enterococcus sp. (1367)): 11.4 µg/mL (≈ 31.5 µM)
MBC (E. coli 85^R): 2 µg/mL (≈ 5.55 µM)
MIC50 (E. coli 85^R): 1 µg/mL (≈ 2.77 µM)
MIC90 (E. coli 85^R): 1.7 µg/mL (≈ 4.72 µM)
